Data reported in US6476030B1, “Pyrazolo-triazine derivatives as ligands for GABA receptors” (Merck Sharp & Dohme Ltd., priority 1998, dated 2002).
Where a name gives a salt, the structure may show the parent alone.

| SMILES | melting point [°C] |
| --- | --- |
| CCn1ncnc1COc1nn2c(-c3ccccc3F)nncc2c1-c1ccccc1 [Example 5, 2-(2-Ethyl-2H-[1,2,4]triazol-3-ylmethoxy)-7-(2-fluorophenyl)-3-phenylpyrazolo[1,5-d][1,2,4]triazine] | 171 to 173 |
| Cn1ncnc1COc1nn2c(-c3cccc(F)c3)nncc2c1-c1ccccc1 [Example 7, 7-(3-Fluorophenyl)-2-(2-methyl-2H-[1,2,4]triazol-3-ylmethoxy)-3-phenylpyrazolo[1,5-d][1,2,4]triazine] | 198 |
| Fc1ccccc1-c1nncc2c(-c3ccccc3)c(OCc3ccccn3)nn12 [Example 8, 7-(2-Fluorophenyl)-3-phenyl-2-(pyridin-2-ylmethoxy)pyrazolo[1,5-d][1,2,4]triazine] | 182 to 183 |
| Cn1ncnc1COc1nn2c(-c3c(F)cccc3F)nncc2c1-c1ccccc1 [Example 10, 7-(2,6-Difluorophenyl)-2-(2-methyl-2H-[1,2,4]triazol-3-ylmethoxy)-3-phenylpyrazolo[1,5-d][1,2,4]triazine] | 179 |
| Cn1ncnc1COc1nn2c(-c3cccs3)nncc2c1-c1ccccc1 [Example 11, 2-(2-Methyl-2H-[1,2,4]triazol-3-ylmethoxy)-3-phenyl-7-(thien-2-yl) pyrazolo[1,5-d][1,2,4]triazine] | 209 |
| Cn1ncnc1COc1nn2c(-c3ccccc3)nncc2c1-c1ccccc1 [Example 12, 3,7-Diphenyl-2-(2-methyl-2H-[1,2,4]triazol-3-ylmethoxy)pyrazolo[1,5-d][1,2,4]triazine] | 185 |
| Cn1ncnc1COc1nn2c(-c3ccccc3F)nncc2c1-c1cc(F)ccc1F [Example 14, 3-(2,5-Difluorophenyl)-7-(2-fluorophenyl)-2-(2-methyl-2H-[1,2,4]triazol-3-ylmethoxy)Pyrazolo[1,5-d][1,2,4]triazine] | 164 to 165 |
| Cn1ncnc1COc1nn2c(-c3ccccc3F)nncc2c1-c1c(F)cccc1F [Example 15, 3-(2,6-Difluorophenyl)-7-(2-fluorophenyl)-2-(2-methyl-2H-[1,2,4]triazol-3-ylmethoxy)pyrazolo[1,5-d][1,2,4]triazine] | 196 |

Other lines, results leading:

| melting point [°C] | SMILES |
| --- | --- |
| 196 to 200 | Cn1ncnc1COc1nn2c(-c3ccccc3F)nncc2c1-c1cccc(N)c1 (as salt: hemisulfate) [Example 94, 3-(3-Aminophenyl)-7-(2-fluorophenyl)-2-(2-methyl-2H-[1,2,4]triazol-3-ylmethoxy)pyrazolo[1,5-d][1,2,4]triazine] |
| 176 | Cn1ncnc1COc1nn2c(-c3ccccc3F)nncc2c1-c1ccccc1 [Example 1, 7-(2-Fluorophenyl)-2-(2-methyl-2H-[1,2,4]triazol-3-ylmethoxy)-3-phenylpyrazolo[1,5-d][1,2,4]triazine] |
| 169 | Cn1ncnc1COc1nn2c(-c3ccccc3F)nncc2c1-c1ccccc1F [Example 2, 3-(2-Fluorophenyl)-7-(2-fluorophenyl)-2-(2-methyl-2H-[1,2,4]triazol-3-ylmethoxy)pyrazolo[1,5-d][1,2,4]triazine] |
| 176 | Cn1ncnc1COc1nn2c(-c3ccccc3F)nncc2c1-c1cccc(F)c1 [Example 3, 3-(3-Fluorophenyl)-7-(2-fluorophenyl)-2-(2-methyl-2H-[1,2,4]triazol-3-ylmethoxy)pyrazolo[1,5-d][1,2,4]triazine] |
| 192 | Cn1ncnc1COc1nn2c(-c3ccccc3F)nncc2c1-c1ccc(F)cc1 [Example 4, 3-(4-Fluorophenyl)-7-(2-fluorophenyl)-2-(2-methyl-2H-[1,2,4]triazol-3-ylmethoxy)pyrazolo[1,5-d][1,2,4]triazine] |
| 199 | Cn1ncnc1COc1nn2c(-c3cc(F)ccc3F)nncc2c1-c1ccccc1 [Example 13, 7-(2,5-Difluorophenyl)-2-(2-methyl-2H-[1,2,4]triazol-3-ylmethoxy)-3-phenylpyrazolo[1,5-d][1,2,4]triazine] |
